According to patent US6150414A, “Compositions and methods for treating viral infections” (priority 1992, dated 2000):
Values joined by “and” are separate entries in the source; they are usually repeats but may differ in a detail not shown here. Identical values can stand only once.

Legend:
[1] = molecular target: T1, Radiation Leukemia Virus reverse transcriptase (Radiation murine leukemia virus, UniProt P11227); experiment: Reverse transcriptase assay of Radiation Leukemia Virus from B10.T(6R) cell supernatants (Example 3); format: biochemical; details: Table V; for CPM: replicate
T1 construct: the reverse transcriptase of Radiation Leukemia Virus; endogenous in cells
Method: Supernatants (10 ml/tube) from B10.T(6R) cells (Meruelo et al. J. Exp. Med. 147: 470-487, 1978) chronically infected with Radiation Leukemia Virus (RadLV) were obtained by centrifugation of cells in culture at 4° C., 3500 rpm for 15 minutes. The top 2/3 of the supernatant were removed and aliquots were incubated for 30 minutes on ice with the indicated amounts of hypericin or protohypericin. […] Thereafter, supernatants were centrifuged at 100,000×g using a TI70 rotor (Beckman Instruments) for 1 hour at 4° C. The pellet was […] and analyzed for reverse transcriptase activity as follows.
The reverse transcriptase assay was performed in a volume of 100 microliters containing the following components:
The reverse transcriptase assay provides a measure of the antiviral activity of the compounds tested by reference to the observed decrease in activity of this enzyme.
In Table V, "CPM" is "counts per minute", "Average" is the numerical average of CPM values within each group of animals.

[2] = molecular target: T1, Radiation Leukemia Virus reverse transcriptase; experiment: Radiation Leukemia Virus reverse transcriptase assay, supernatants from infected AQR cells (Examples 4 and 9); format: biochemical; details: Table VI; for CPM: replicate, listed as Hy
Outline: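 Supernatants from AQR cells chronically infected with RadLV were incubated 30 min on ice with the test compound (hypericin, protohypericin or HHA). Virus was pelleted at 100,000×g for 1 h at 4 °C, and the pellet was assayed for reverse transcriptase activity.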

retroviruses (virions) = experiment: Direct inactivation of retroviruses (virions) in vitro (Example 10); format: biochemical, Radiation Leukemia Virus; details: Table IX
Outline: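 RadLV-containing supernatants from chronically infected B10.T(6R) cells incubated 30 min on ice with hypericin or protohypericin. Virions then pelleted at 100,000×g for 1 h at 4° C and assayed for reverse transcriptase activity. EC50 is the micromolar concentration inhibiting 50% of virus.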

[3] = tested on: virus budding in virus-producing cells; experiment: In vitro inhibition of virus budding: production of defective budded virions (Example 10); format: cell-based; details: in vitro; Table IX; read-out: EC50 for production of defective budded virions
From the text: (§1) The results presented above in Table IX are presented as EC50 concentrations. These are the effective concentrations which inhibit 50% of the viruses in micromolar concentrations.

Friend Leukemia Virus = experiment: In vivo inhibition of Friend Leukemia Virus splenomegaly, intravenous 1-2 hours post infection (Example 10); set-up: species or system mice; details: Mus musculus, read-out: EC50 for FV-induced splenomegaly
Method: (3) In vivo inhibition of Friend Leukemia Virus Splenomegaly performed as described in Example 1 above except that the compounds were administered intravenously 1-2 hours post infection.
as §1

[4] = Antiviral activity of hypericin as a function of frequency of treatment in mouse studies; format: in vivo
From the text: The present inventors have also discovered that the antiviral activity of hypericin is a function of the frequency of treatment. […] While the foregoing observations in mice may not be applicable to other mammals or humans, those skilled in the art will appreciate that the frequency of treatment is subject to optimization, which can be determined by routine experimentation according to methods well known in the art, e.g. by establishing a matrix of dosage and frequency and assigning a group of experimental subjects to each point of the matrix. Design of this experiment should preferably also take into account the tissue accumulation properties of PAC compounds.

For Cc1cc(O)c2c(=O)c3c(O)cc(O)c4c5c(O)cc(O)c6c(=O)c7c(O)cc(C)c8c1c2c(c34)c(c78)c65 [hypericin, Hypericin], the “Average CPM” value ([1]; 0.05 micrograms) was 3,067 CPM, the Average percent inhibition ([1]; 0.05 micrograms) was 98.5% and the CPM ([1]; 0.05 micrograms) was 2,882 CPM and 3,252 CPM. For the same compound, the “Average CPM” value ([1]; 0.1 micrograms) was 2,333 CPM, the Average percent inhibition ([1]; 0.1 micrograms) was 98.9% and the CPM ([1]; 0.1 micrograms) was 1,668 CPM and 2,998 CPM. The “Average CPM” value ([1]; 0.5 micrograms) was 3,428.5 CPM, the Average percent inhibition ([1]; 0.5 micrograms) was 98.4% and the CPM ([1]; 0.5 micrograms) was 3,190 CPM and 3,667 CPM. For the same compound, the “Average CPM” value ([1]; 1 microgram) was 4,097 CPM, the Average percent inhibition ([1]; 1 microgram) was 98.0% and the CPM ([1]; 1 microgram) was 4,504 CPM and 3,690 CPM. For the same compound, the “Average CPM” value ([1]; 5 micrograms) was 11,778 CPM, the Average percent inhibition ([1]; 5 micrograms) was 94.4% and the CPM ([1]; 5 micrograms) was 12,224 CPM and 11,332 CPM. For the same compound, the “Average CPM” value ([1]; 10 micrograms) was 9,007 CPM, the Average percent inhibition ([1]; 10 micrograms) was 95.7% and the CPM ([1]; 10 micrograms) was 8,912 CPM and 9,102 CPM. For the same compound, the “Average CPM” value ([1]; 50 micrograms) was 4,575 CPM, the Average percent inhibition ([1]; 50 micrograms) was 97.8% and the CPM ([1]; 50 micrograms) was 5,434 CPM and 3,716 CPM. For the same compound, the “Average CPM” value ([1]; 100 micrograms) was 1,830 CPM, the Average percent inhibition ([1]; 100 micrograms) was 99.0% and the CPM ([1]; 100 micrograms) was 1,502 CPM and 2,158 CPM. The “Average CPM” value ([2]; 0.4 micrograms) was 2,489 CPM, the “Average percent inhibition” value ([2]; 0.4 micrograms) was 99.4% and the CPM ([2]; 0.4 micrograms) was 1,700 CPM and 3,278 CPM. For the same compound, the “Average CPM” value ([2]; 2 micrograms) was 9,986 CPM, the “Average percent inhibition” value ([2]; 2 micrograms) was 97.8% and the CPM ([2]; 2 micrograms) was 14,474 CPM and 5,498 CPM. The “Average CPM” value ([2]; 10 micrograms) was 11,588 CPM, the “Average percent inhibition” value ([2]; 10 micrograms) was 97.4% and the CPM ([2]; 10 micrograms) was 9,288 CPM and 13,888 CPM. The “Average CPM” value ([2]; 50 micrograms) was 31,818 CPM, the “Average percent inhibition” value ([2]; 50 micrograms) was 92.9% and the CPM ([2]; 50 micrograms) was 33,948 CPM and 29,688 CPM. For the same compound, the “Average CPM” value ([2]; 100 micrograms) was 31,347 CPM, the “Average percent inhibition” value ([2]; 100 micrograms) was 93.0% and the CPM ([2]; 100 micrograms) was 28,946 CPM and 33,748 CPM. The EC50 (retroviruses (virions)) was 60 nM, the EC50 [3] was 200 nM and the EC50 (Friend Leukemia Virus) was 120 nM. The “antiviral activity vs frequency of treatment” value ([4]; 10 micrograms every day for ten days) was “less effective than even a single 10-microgram dose”, the “antiviral activity vs frequency of treatment” value ([4]; 10 micrograms once a week) was “as effective as the single 10-microgram dose” and the “antiviral activity vs dose” value ([4]; single dose of ten micrograms per mouse) was “less effective than a single dose of 100 micrograms per mouse”.
